Laboratory results: patent US11932634B2 (Gilead Sciences, Inc., priority 2021, dated 2024)

Key:
[1] = test system: Jurkat NFκB-luciferase cells; experiment: Jurkat NFκB-Luciferase Assay; format: cell-based; details: Homo sapiens; Jurkat NFκB-luciferase cells activated with anti-CD3 antibody (OKT3), 2.5 hrs at 37° C., One-Glo Ex; geometric mean; read-out: DGK NFKb Luciferase EC50;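 further: bioluminescence read-out normalized to DMSO basal activation and to maximum enhancement at 1 µM compound, rising signal indicating stronger T-cell activation through DGKα inhibition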
human DGKα = molecular target: T1, human DGKα (Homo sapiens, UniProt P23743); experiment: DGKα Biochemical Activity Assay (ADP-Glo);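 further: recombinant enzyme converting diacylglycerol in lipid micelles with ATP, ADP formed detected by luminescence, IC50 from a four-parameter nonlinear fit, geometric mean across experiments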
T1 construct: purchased Carna Biosciences'; inferred from the same paragraph's 'obtained from Carna Biosciences')
T1 sequence (P23743 whole entry): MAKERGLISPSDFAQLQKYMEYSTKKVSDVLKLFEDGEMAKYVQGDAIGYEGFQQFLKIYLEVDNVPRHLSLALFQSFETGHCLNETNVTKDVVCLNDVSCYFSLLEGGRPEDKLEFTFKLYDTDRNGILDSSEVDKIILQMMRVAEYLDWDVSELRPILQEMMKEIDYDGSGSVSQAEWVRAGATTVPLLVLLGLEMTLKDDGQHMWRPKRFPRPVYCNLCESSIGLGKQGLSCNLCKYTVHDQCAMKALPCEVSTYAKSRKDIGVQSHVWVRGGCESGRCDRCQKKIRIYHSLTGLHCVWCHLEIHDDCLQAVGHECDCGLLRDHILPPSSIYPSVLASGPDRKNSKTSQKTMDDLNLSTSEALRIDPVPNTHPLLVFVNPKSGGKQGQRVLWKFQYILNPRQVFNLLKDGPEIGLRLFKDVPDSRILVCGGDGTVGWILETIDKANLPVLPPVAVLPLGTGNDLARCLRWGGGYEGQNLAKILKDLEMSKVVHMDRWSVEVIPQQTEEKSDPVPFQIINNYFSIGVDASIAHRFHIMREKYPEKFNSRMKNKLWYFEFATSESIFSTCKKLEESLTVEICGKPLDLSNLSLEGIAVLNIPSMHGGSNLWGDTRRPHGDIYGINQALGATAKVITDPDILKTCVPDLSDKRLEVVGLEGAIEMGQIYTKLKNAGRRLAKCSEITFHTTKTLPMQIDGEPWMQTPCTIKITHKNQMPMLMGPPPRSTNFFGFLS

SMILES	EC50 [1]	IC50 (human DGKα)
CN(c1cccc(-c2ccc(C3CC3)cc2)c1)c1nc(=O)[nH]c2cc(Cl)ccc12 [Example 1, 7-chloro-4-[3-(4-cyclopropylphenyl)-N-methyl-anilino]-1H-quinazolin-2-one]	1.36 nM	166 nM
CN(c1cccc(-c2ccc(C3CC3)cc2)c1)c1nc(=O)n(C)c2cc(Cl)ccc12 [Example 2, 7-chloro-4-[3-(4-cyclopropylphenyl)-N-methyl-anilino]-1-methyl-quinazolin-2-one]	0.479 nM	15.1 nM
CN(c1cccc(C#CC(C)(C)O)c1)c1nc(=O)[nH]c2cc(Cl)ccc12 [Example 3, 7-chloro-4-[3-(3-hydroxy-3-methyl-but-1-ynyl)-N-methyl-anilino]-1H-quinazolin-2-one]	10.7 nM	96.3 nM
CN(c1cccc(C#CC(C)(C)O)c1)c1nc(=O)n(C)c2cc(Cl)ccc12 [Example 4, 7-chloro-4-[3-(3-hydroxy-3-methyl-but-1-ynyl)-N-methyl-anilino]-1-methyl-quinazolin-2-one]	4.56 nM	17 nM
CN(c1cccc(C#CC2(C(F)(F)F)CC2)c1)c1nc(=O)[nH]c2cc(Cl)ccc12 [Example 5, 7-chloro-4-[N-methyl-3-[2-[1-(trifluoromethyl)cyclopropyl]ethynyl]anilino]-1H-quinazolin-2-one]	1.01 nM	53.1 nM
CN(c1cccc(-c2ccc(N3CCCC3)nc2)c1)c1nc(=O)[nH]c2cc(Cl)ccc12 [Example 6, 7-chloro-4-[N-methyl-3-(6-pyrrolidin-1-yl-3-pyridyl)anilino]-1H-quinazolin-2-one]	2.24 nM	84.5 nM
CN(c1cccc(-c2ccc(N3CCCC3)nc2)c1)c1nc(=O)n(C)c2cc(Cl)ccc12 [Example 7, 7-chloro-1-methyl-4-[N-methyl-3-(6-pyrrolidin-1-yl-3-pyridyl)anilino]quinazolin-2-one]	0.675 nM	17.9 nM
CN(c1cccc(C#CC2(C(F)(F)F)CC2)c1)c1nc(=O)n(C)c2cc(Cl)ccc12 [Example 8, 7-chloro-1-methyl-4-[N-methyl-3-[2-[1-(trifluoromethyl)cyclopropyl]ethynyl]anilino]quinazolin-2-one]	0.489 nM	12.4 nM
CN(c1cccc(-c2ccc(N3CCCS3(=O)=O)cc2)c1)c1nc(=O)[nH]c2cc(Cl)ccc12 [Example 9, 7-chloro-4-[3-[4-(1,1-dioxo-1,2-thiazolidin-2-yl)phenyl]-N-methyl-anilino]-1H-quinazolin-2-one]	5.03 nM	33.3 nM
CN(c1cccc(-c2ccc(N3CCCS3(=O)=O)cc2)c1)c1nc(=O)n(C)c2cc(Cl)ccc12 [Example 10, 7-chloro-4-[3-[4-(1,1-dioxo-1,2-thiazolidin-2-yl)phenyl]-N-methyl-anilino]-1-methyl-quinazolin-2-one]	1.51 nM	14 nM
CN(c1cccc(-c2cnc(C3CC3)cn2)c1)c1nc(=O)n(C)c2cc(Cl)ccc12 [Example 11, 7-chloro-4-[3-(5-cyclopropylpyrazin-2-yl)-N-methyl-anilino]-1-methyl-quinazolin-2-one]	0.709 nM	4.02 nM
CN(c1cncc(C#CC2(C(F)(F)F)CC2)n1)c1nc(=O)n(C)c2cc(Cl)ccc12 [Example 12, 7-chloro-1-methyl-4-[methyl-[6-[2-[1-(trifluoromethyl)cyclopropyl]ethynyl]pyrazin-2-yl]amino]quinazolin-2-one]	1.04 nM	2.91 nM
CN(c1cncc(C#CC2(C(F)(F)F)CC2)n1)c1nc(=O)[nH]c2cc(Cl)ccc12 [Example 13, 7-chloro-4-[methyl-[6-[2-[1-(trifluoromethyl)cyclopropyl]ethynyl]pyrazin-2-yl]amino]-1H-quinazolin-2-one]	1.16 nM	20.6 nM
CN(c1cc(F)cc(C#CC2(C(F)(F)F)CC2)c1)c1nc(=O)[nH]c2cc(Cl)ccc12 [Example 14, 7-chloro-4-[3-fluoro-N-methyl-5-[2-[1-(trifluoromethyl)cyclopropyl]ethynyl]anilino]-1H-quinazolin-2-one]	0.788 nM	138 nM
[2H]C([2H])([2H])n1c(=O)nc(N(C)c2cc(F)cc(C#CC3(C(F)(F)F)CC3)c2)c2ccc(Cl)cc21 [Example 15, 7-chloro-4-[3-fluoro-N-methyl-5-[2-[1-(trifluoromethyl)cyclopropyl]ethynyl]anilino]-1-(trideuteriomethyl)quinazolin-2-one]	0.557 nM	27.3 nM
O=c1nc(N(CC(F)F)c2cc(F)cc(C#CC3(C(F)(F)F)CC3)c2)c2c(F)cccc2[nH]1 [Example 16, 4-[N-(2,2-difluoroethyl)-3-fluoro-5-[2-[1-(trifluoromethyl)cyclopropyl]ethynyl]anilino]-5-fluoro-1H-quinazolin-2-one]	1.19 nM	252 nM
O=c1nc(N(CC(F)F)c2cc(F)cc(-c3cnc(C4CC4)cn3)c2)c2c(F)cccc2[nH]1 [Example 17, 4-[3-(5-cyclopropylpyrazin-2-yl)-N-(2,2-difluoroethyl)-5-fluoro-anilino]-5-fluoro-1H-quinazolin-2-one]	1.23 nM	30.1 nM
O=c1nc(N(CC(F)F)c2cc(F)cc(-c3ccc(C(F)F)nc3)c2)c2c(F)cccc2[nH]1 [Example 18, 4-[N-(2,2-difluoroethyl)-3-[6-(difluoromethyl)-3-pyridyl]-5-fluoro-anilino]-5-fluoro-1H-quinazolin-2-one]	2.63 nM	54.4 nM
O=c1nc(N2CCCc3c(C#CC4(C(F)(F)F)CC4)cccc32)c2c(F)cccc2[nH]1 [Example 19, 5-fluoro-4-[5-[2-[1-(trifluoromethyl)cyclopropyl]ethynyl]-3,4-dihydro-2H-quinolin-1-yl]-1H-quinazolin-2-one]	0.63 nM	62.5 nM
CCn1c(=O)nc(N2CCCc3c(C#CC4(C(F)(F)F)CC4)cccc32)c2c(F)cccc21 [Example 20, 1-ethyl-5-fluoro-4-[5-[2-[1-(trifluoromethyl)cyclopropyl]ethynyl]-3,4-dihydro-2H-quinolin-1-yl]quinazolin-2-one]	0.875 nM	293 nM
[2H]C([2H])([2H])n1c(=O)nc(N2CCCc3c(C#CC4(C(F)(F)F)CC4)cccc32)c2c(F)cccc21 [Example 21, 5-fluoro-1-(trideuteriomethyl)-4-[5-[2-[1-(trifluoromethyl)cyclopropyl]ethynyl]-3,4-dihydro-2H-quinolin-1-yl]quinazolin-2-one]	0.232 nM	11.3 nM
O=c1nc(N(CC(F)F)c2ccnc(C#CC3(C(F)(F)F)CC3)c2)c2c(F)c(F)ccc2[nH]1 [Example 78]	2.55 nM	–
O=c1nc(N2CCOCc3c(C#CC4(C(F)(F)F)CC4)cccc32)c2c(F)cccc2[nH]1 [Example 90]	0.442 nM	–
[2H]C([2H])([2H])n1c(=O)nc(N2CCOCc3c(C#CC4(C(F)(F)F)CC4)cccc32)c2c(F)c(F)ccc21 [Example 96]	0.559 nM	–
O=c1nc(N2CCCCc3c(C#CC4(C(F)(F)F)CC4)cncc32)c2c(F)cccc2[nH]1 [Example 153]	1.62 nM	–
CC1(C#Cc2cccc3c2COCCN3c2nc(=O)[nH]c3cccc(F)c23)CC1 [Example 154]	0.783 nM	–
